The supplement of paper PMC10627819

Key:
Assay in all cases: Bliss interaction score (quartile over a dose matrix) (fitness difference); higher = more antagonism (negative = synergy)
[1] = system: B. subtilis 168
Outline: (§1)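 Fitness was derived from optical density at entry into stationary phase, divided by the robust mean of the no-drug wells on the same plate. That reading was taken as OD595, and the ratio was capped at 1. Single-drug fitness was inferred from the combination data. The Bliss score, observed fitness minus the expected product of single-drug fitness, was summarised as quartiles over technical, biological and donor/recipient replicates.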

[2] = system: S. pneumoniae D39V
Outline: as §1

[3] = system: S. aureus DSM 20231
Outline: as §1

[4] = system: S. aureus Newman
Outline: as §1
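Note: first quartile when negative (synergy) and third quartile when positive (antagonism).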

Structure (SMILES)	Bliss interaction score [1]	Bliss interaction score [2]	Bliss interaction score [3]	Bliss interaction score [4]	Bliss interaction score ([1]; main component drawn)	Bliss interaction score ([2]; main component drawn)	Bliss interaction score ([3]; main component drawn)	Bliss interaction score ([4]; main component drawn)
CC[C@H]1OC(=O)[C@H](C)[C@@H](O[C@H]2C[C@@](C)(OC)[C@@H](O)[C@H](C)O2)[C@H](C)[C@@H](O[C@@H]2O[C@H](C)C[C@H](N(C)C)[C@H]2O)[C@](C)(O)C[C@@H](C)C(=O)[C@H](C)[C@@H](O)[C@]1(C)O [Erythromycin] + C[n+]1ccc(-c2cc[n+](C)cc2)cc1 [Paraquat]	-0.0399	0.0496	0.0299	0.0479	–	–	–	–
CC[C@H]1OC(=O)[C@H](C)[C@@H](O[C@H]2C[C@@](C)(OC)[C@@H](O)[C@H](C)O2)[C@H](C)[C@@H](O[C@@H]2O[C@H](C)C[C@H](N(C)C)[C@H]2O)[C@](C)(O)C[C@@H](C)C(=O)[C@H](C)[C@@H](O)[C@]1(C)O [Erythromycin] + Cc1cc(NS(=O)(=O)c2ccc(N)cc2)no1 [Sulfamethoxazol]	-0.0511	-0.0479	-0.0354	-0.0442	–	–	–	–
CC[C@H]1OC(=O)[C@H](C)[C@@H](O[C@H]2C[C@@](C)(OC)[C@@H](O)[C@H](C)O2)[C@H](C)[C@@H](O[C@@H]2O[C@H](C)C[C@H](N(C)C)[C@H]2O)[C@](C)(O)C[C@@H](C)C(=O)[C@H](C)[C@@H](O)[C@]1(C)O [Erythromycin] + Cc1ncc([N+](=O)[O-])n1CCO [Metronidazole]	-0.0335	0.0719	-0.0288	-0.0396	–	–	–	–
CC[C@H]1OC(=O)[C@H](C)[C@@H](O[C@H]2C[C@@](C)(OC)[C@@H](O)[C@H](C)O2)[C@H](C)[C@@H](O[C@@H]2O[C@H](C)C[C@H](N(C)C)[C@H]2O)[C@](C)(O)C[C@@H](C)C(=O)[C@H](C)[C@@H](O)[C@]1(C)O [Erythromycin] + Cc1onc(-c2ccccc2)c1C(=O)N[C@@H]1C(=O)N2[C@@H]1SC(C)(C)[C@@H]2C(=O)O [Oxacillin]	-0.0427	0.0509	0.0345	0.0255	–	–	–	–
CC[C@H]1OC(=O)[C@H](C)[C@@H](O[C@H]2C[C@@](C)(OC)[C@@H](O)[C@H](C)O2)[C@H](C)[C@@H](O[C@@H]2O[C@H](C)C[C@H](N(C)C)[C@H]2O)[C@](C)(O)C[C@@H](C)C(=O)[C@H](C)[C@@H](O)[C@]1(C)O [Erythromycin] + Clc1ccc(COC(Cn2ccnc2)c2ccc(Cl)cc2Cl)c(Cl)c1 [Miconazole]	-0.0519	0.114	0.0299	0.0457	–	–	–	–
CC[C@H]1OC(=O)[C@H](C)[C@@H](O[C@H]2C[C@@](C)(OC)[C@@H](O)[C@H](C)O2)[C@H](C)[C@@H](O[C@@H]2O[C@H](C)C[C@H](N(C)C)[C@H]2O)[C@](C)(O)C[C@@H](C)C(=O)[C@H](C)[C@@H](O)[C@]1(C)O [Erythromycin] + Cn1nnc(-c2ccc(-c3ccc(N4C[C@H](CO)OC4=O)cc3F)cn2)n1 [Tedizolid]	-0.0574	0.0787	-0.0541	-0.07	–	–	–	–
CC[C@H]1OC(=O)[C@H](C)[C@@H](O[C@H]2C[C@@](C)(OC)[C@@H](O)[C@H](C)O2)[C@H](C)[C@@H](O[C@@H]2O[C@H](C)C[C@H](N(C)C)[C@H]2O)[C@](C)(O)C[C@@H](C)C(=O)[C@H](C)[C@@H](O)[C@]1(C)O [Erythromycin] + O=C1CN(/N=C/c2ccc([N+](=O)[O-])o2)C(=O)N1 [Nitrofurantoin]	-0.0393	-0.197	-0.0518	-0.0513	–	–	–	–
CC[C@H]1OC(=O)[C@H](C)[C@@H](O[C@H]2C[C@@](C)(OC)[C@@H](O)[C@H](C)O2)[C@H](C)[C@@H](O[C@@H]2O[C@H](C)C[C@H](N(C)C)[C@H]2O)[C@](C)(O)C[C@@H](C)C(=O)[C@H](C)[C@@H](O)[C@]1(C)O [Erythromycin] + Oc1cc(Cl)ccc1Oc1ccc(Cl)cc1Cl [Triclosan]	-0.0438	-0.0874	-0.0265	0.0312	–	–	–	–
CC(=O)NC[C@H]1CN(c2ccc(N3CCOCC3)c(F)c2)C(=O)O1 [Linezolid] + CC1(C)S[C@@H]2[C@H](NC(=O)Cc3ccccc3)C(=O)N2[C@H]1C(=O)O [PenicillinG]	-0.0653	0.0505	0.0632	-0.0481	–	–	–	–
CC(=O)NC[C@H]1CN(c2ccc(N3CCOCC3)c(F)c2)C(=O)O1 [Linezolid] + CC[C@H]1OC(=O)[C@H](C)C(=O)[C@H](C)[C@@H](O[C@@H]2O[C@H](C)C[C@H](N(C)C)[C@H]2O)[C@](C)(OC)C[C@@H](C)C(=O)[C@H](C)[C@H]2N(CCCCn3cnc(-c4cccnc4)c3)C(=O)O[C@]12C [Telithromycin]	-0.143	-0.0921	-0.133	-0.074	–	–	–	–
CC(=O)NC[C@H]1CN(c2ccc(N3CCOCC3)c(F)c2)C(=O)O1 [Linezolid] + CN(C)C(=O)C(CCN1CCC(O)(c2ccc(Cl)cc2)CC1)(c1ccccc1)c1ccccc1 [Loperamide]	0.0436	0.176	0.116	-0.0501	–	–	–	–
CC(=O)NC[C@H]1CN(c2ccc(N3CCOCC3)c(F)c2)C(=O)O1 [Linezolid] + CN[C@H](CC(C)C)C(=O)N[C@H]1C(=O)N[C@@H](CC(N)=O)C(=O)N[C@H]2C(=O)N[C@H]3C(=O)N[C@H](C(=O)N[C@H](C(=O)O)c4cc(O)cc(O)c4-c4cc3ccc4O)[C@H](O[C@H]3C[C@](C)(N)[C@@H](O)[C@H](C)O3)c3ccc(c(Cl)c3)Oc3cc2cc(c3O[C@@H]2O[C@H](CO)[C@@H](O)[C@H](O)[C@H]2O[C@H]2C[C@](C)(NCc3ccc(-c4ccc(Cl)cc4)cc3)[C@@H](O)[C@H](C)O2)Oc2ccc(cc2Cl)[C@H]1O [Oritavancin]	0.0399	0.0845	-0.0323	-0.0463	–	–	–	–
CC(=O)NC[C@H]1CN(c2ccc(N3CCOCC3)c(F)c2)C(=O)O1 [Linezolid] + CO[C@@]12[C@H](COC(N)=O)C3=C(C(=O)C(C)=C(N)C3=O)N1C[C@@H]1N[C@@H]12 [MitomycinC]	0.0314	-0.0668	-0.068	0.0823	–	–	–	–
CC(=O)NC[C@H]1CN(c2ccc(N3CCOCC3)c(F)c2)C(=O)O1 [Linezolid] + Oc1cc(Cl)ccc1Oc1ccc(Cl)cc1Cl [Triclosan]	0.0335	-0.0928	-0.0777	0.026	–	–	–	–
CO[C@@]12[C@H](COC(N)=O)C3=C(C(=O)C(C)=C(N)C3=O)N1C[C@@H]1N[C@@H]12 [MitomycinC] + C/C(=C\C(=O)OCCCCCCCCC(=O)O)C[C@@H]1OC[C@H](C[C@@H]2O[C@H]2[C@@H](C)[C@H](C)O)[C@@H](O)[C@H]1O [Pseudomonic acid]	-0.0185	-0.0895	-0.011	-0.0169	–	–	–	–
CO[C@@]12[C@H](COC(N)=O)C3=C(C(=O)C(C)=C(N)C3=O)N1C[C@@H]1N[C@@H]12 [MitomycinC] + CC1(C)S[C@@H]2[C@H](NC(=O)Cc3ccccc3)C(=O)N2[C@H]1C(=O)O [PenicillinG]	-0.0602	0.103	-0.0709	-0.0455	–	–	–	–
CO[C@@]12[C@H](COC(N)=O)C3=C(C(=O)C(C)=C(N)C3=O)N1C[C@@H]1N[C@@H]12 [MitomycinC] + CC1=C\[C@@H](O)CC(=O)Cc2nc(co2)C(=O)N2CCC=C2C(=O)O[C@H](C(C)C)[C@H](C)/C=C/C(=O)NC\C=C\1 [Virginiamycin M1]	0.0757	0.0805	0.0401	-0.059	–	–	–	–
CO[C@@]12[C@H](COC(N)=O)C3=C(C(=O)C(C)=C(N)C3=O)N1C[C@@H]1N[C@@H]12 [MitomycinC] + CCC(C)C1C(=O)NC(=C)C(=O)NC(C(=O)NC(CSCC(C(=O)N1)NC(=O)/C(=C/C)/NC(=O)C(C(C)CC)N)C(=O)NC2C(SCC(NC(=O)CNC(=O)C3CCCN3C2=O)C(=O)NC(CCCCN)C(=O)NC4C(SCC(NC(=O)CNC(=O)C(NC(=O)C(NC(=O)C(NC(=O)CNC4=O)C)CC(C)C)CCSC)C(=O)NC(CC(=O)N)C(=O)NC(CCSC)C(=O)NC(CCCCN)C(=O)NC5C(SCC6C(=O)NC(C(=O)NC(CSC(C(C(=O)N6)NC(=O)C(NC5=O)C)C)C(=O)NC(CO)C(=O)NC(C(C)CC)C(=O)NC(CC7=CN=CN7)C(=O)NC(C(C)C)C(=O)NC(=C)C(=O)NC(CCCCN)C(=O)O)CC8=CN=CN8)C)C)C)CC(C)C [Nisin]	–	–	–	–	-0.0279	-0.0423	-0.242	-0.0537
CO[C@@]12[C@H](COC(N)=O)C3=C(C(=O)C(C)=C(N)C3=O)N1C[C@@H]1N[C@@H]12 [MitomycinC] + CCCCCCCCCC(=O)N[C@@H]1[C@H]([C@@H]([C@H](O[C@H]1OC2=C3C=C4C=C2OC5=C(C=C(C=C5)[C@H]([C@H]6C(=O)N[C@@H](C7=C(C(=CC(=C7)O)OC8[C@H]([C@H]([C@@H]([C@H](O8)CO)O)O)O)C9=C(C=CC(=C9)[C@H](C(=O)N6)NC(=O)[C@@H]4NC(=O)[C@@H]1C2=CC(=CC(=C2)OC2=C(C=CC(=C2)[C@H](C(=O)N[C@H](CC2=CC(=C(O3)C=C2)Cl)C(=O)N1)N)O)O)O)C(=O)O)O[C@H]1[C@@H]([C@H]([C@@H]([C@H](O1)CO)O)O)NC(=O)C)Cl)CO)O)O [Teicoplanin]	–	–	–	–	-0.0487	-0.0795	-0.126	-0.228
